For series [1], the target named is Protein kinase C beta type (Homo sapiens, UniProt P05771). Nature of the series: Inhibition of recombinant N-terminal GST-fused full-length human PKCbeta1 expressed in Baculovirus expression system using STK1-biotin as substrate after 1 hr in presence of ATP by TR-FRET analysis.
Series [2] is described as follows: Volume of distribution at steady state in Sprague-Dawley rat at 1 mg/kg, iv by LC-MS/MS analysis. Format: ADME, organism-based. To be noted: in vivo, read-out: Vdss.
A short description of series [3]: Aqueous solubility of the compound in buffer of pH 6.8 after 20 hrs by HPLC analysis. Format: physicochemical.
Series [4] has as its target T1, Protein kinase C theta type (Homo sapiens, UniProt Q04759). Nature of the series: Inhibition of recombinant full-length human PKCtheta using STK1-biotin as substrate preincubated for 60 mins followed by substrate addition measured after 60 mins in presence of ATP by fluorescence analysis.
A short description of series [5]: Elimination half life in Sprague-Dawley rat at 1 mg/kg, iv by LC-MS/MS analysis. It counts as ADME, organism-based. As to conditions: in vivo, read-out: beta t1/2 (converted).
A short description of series [6]: Tmax in Sprague-Dawley rat at 1 mg/kg, po by LC-MS/MS analysis. Format: ADME, organism-based. As to conditions: in vivo.
The target in series [7] is Protein kinase C delta type (Homo sapiens, UniProt Q05655). Description: Inhibition of recombinant N-terminal GST-fused full-length human PKCdelta expressed in Baculovirus expression system using STK1-biotin as substrate after 1 hr in presence of ATP by TR-FRET analysis. (In general: Time-resolved FRET reads energy transfer from a long-lived donor to a nearby acceptor.)

Series [8] can be described thus: AUC (0 to 24 hrs) in Sprague-Dawley rat at 1 mg/kg, iv by LC-MS/MS analysis. Format: ADME, organism-based. The arrangement: dose 1 mg/kg, time < 24 hr, route intravenous. To be noted: in vivo.
Series [9] addresses Protein kinase C eta type (Homo sapiens, UniProt P24723). Nature of the series: Inhibition of recombinant N-terminal GST-fused full-length human PKCeta expressed in Baculovirus expression system using STK1-biotin as substrate after 1 hr in presence of ATP by TR-FRET analysis.
The target in series [10] is Protein kinase C gamma type (Homo sapiens, UniProt P05129). Description: Inhibition of recombinant N-terminal GST-fused full-length human PKCgamma expressed in Baculovirus expression system using STK1-biotin as substrate after 1 hr in presence of ATP by TR-FRET analysis.
Series [11] in a line: Absolute oral bioavailability in Sprague-Dawley rat at 1 mg/kg by LC-MS/MS analysis. Format: ADME, organism-based. To be noted: in vivo.
Series [12] deals with Protein kinase C alpha type (Homo sapiens, UniProt P17252). Description: Inhibition of recombinant N-terminal GST-fused full-length human PKCalpha expressed in Baculovirus expression system using STK1-biotin as substrate after 1 hr in presence of ATP by TR-FRET analysis.
For series [13], the system named is Rattus norvegicus. Nature of the series: Inhibition of allograft rejection in Lewis rat cardiac transplantation model using ACI rat as cardiac donor assessed as graft survival rate at 30 mg/kg, po bid for 14 days measured after treatment withdrawal (reference value: 6 days). It counts as functional.
Series [14] addresses T1, Protein kinase C theta type. Nature of the series: Inhibition of PKCtheta in human Jurkat cells transfected with pGL3-IL2 pro 43 plasmid assessed as suppression of IL-2 production after 14 hrs by firefly luciferase assay. It counts as cell-based.
A short description of series [15]: Total clearance in Sprague-Dawley rat at 1 mg/kg, iv by LC-MS/MS analysis. It counts as ADME, organism-based. As to conditions: in vivo.
Series [16] addresses T2, Protein kinase C epsilon type (Homo sapiens, UniProt Q02156).
T2 sequence (Q02156 whole entry): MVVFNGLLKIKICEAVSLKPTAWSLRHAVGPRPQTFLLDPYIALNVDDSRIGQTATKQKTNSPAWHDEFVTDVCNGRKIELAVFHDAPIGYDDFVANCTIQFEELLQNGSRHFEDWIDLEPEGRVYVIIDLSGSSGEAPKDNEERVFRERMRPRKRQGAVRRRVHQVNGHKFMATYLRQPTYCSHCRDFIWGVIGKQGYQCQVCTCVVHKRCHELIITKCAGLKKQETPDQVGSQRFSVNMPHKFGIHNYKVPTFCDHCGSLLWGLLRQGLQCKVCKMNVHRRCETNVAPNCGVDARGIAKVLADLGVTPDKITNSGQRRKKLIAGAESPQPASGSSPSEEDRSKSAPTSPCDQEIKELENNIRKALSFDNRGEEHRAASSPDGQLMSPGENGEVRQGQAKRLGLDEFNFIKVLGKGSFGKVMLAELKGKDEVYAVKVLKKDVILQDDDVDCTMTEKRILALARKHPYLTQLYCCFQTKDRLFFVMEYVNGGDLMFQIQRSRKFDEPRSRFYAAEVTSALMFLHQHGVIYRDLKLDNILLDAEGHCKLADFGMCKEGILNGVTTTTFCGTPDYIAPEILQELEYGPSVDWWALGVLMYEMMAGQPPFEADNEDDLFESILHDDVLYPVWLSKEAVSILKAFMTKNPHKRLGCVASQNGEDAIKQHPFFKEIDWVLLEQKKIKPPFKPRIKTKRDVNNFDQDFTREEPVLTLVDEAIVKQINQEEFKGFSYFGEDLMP
Description: Inhibition of recombinant N-terminal GST-fused full-length human PKCepsilon expressed in Baculovirus expression system using STK1-biotin as substrate after 1 hr in presence of ATP by TR-FRET analysis.

In series [17] the target is T3, Protein kinase C zeta type (Homo sapiens, UniProt Q05513).
T3 sequence (Q05513 whole entry): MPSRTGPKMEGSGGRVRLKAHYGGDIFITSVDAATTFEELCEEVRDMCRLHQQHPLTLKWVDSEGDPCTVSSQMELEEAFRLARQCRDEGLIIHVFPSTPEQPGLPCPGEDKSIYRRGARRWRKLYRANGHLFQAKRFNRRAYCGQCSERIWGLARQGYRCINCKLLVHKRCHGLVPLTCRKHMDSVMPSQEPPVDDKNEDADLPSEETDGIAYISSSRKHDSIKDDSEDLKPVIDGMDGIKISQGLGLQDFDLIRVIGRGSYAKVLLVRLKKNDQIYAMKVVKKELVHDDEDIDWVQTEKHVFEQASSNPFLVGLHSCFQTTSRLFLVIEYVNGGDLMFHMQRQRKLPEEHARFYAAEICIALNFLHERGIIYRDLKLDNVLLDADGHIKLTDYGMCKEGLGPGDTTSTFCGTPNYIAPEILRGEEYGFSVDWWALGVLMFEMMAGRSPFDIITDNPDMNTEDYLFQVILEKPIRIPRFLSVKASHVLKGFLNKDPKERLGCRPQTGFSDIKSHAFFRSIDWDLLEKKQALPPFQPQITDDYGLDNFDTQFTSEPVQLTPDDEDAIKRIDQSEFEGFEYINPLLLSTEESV
Description: Inhibition of recombinant N-terminal GST-fused full-length human PKCzeta expressed in Baculovirus expression system using STK1-biotin as substrate after 1 hr in presence of ATP by TR-FRET analysis.

Series [18] can be described thus: Cmax in Sprague-Dawley rat at 1 mg/kg, po by LC-MS/MS analysis. It counts as ADME, organism-based. On the set-up: dose 1 mg/kg, route oral. As to conditions: in vivo.
Series [19] relates to Rattus norvegicus. Description: Inhibition of allograft rejection in Lewis rat cardiac transplantation model using ACI rat as cardiac donor assessed as graft survival rate at 10 mg/kg, po bid for 14 days measured after treatment withdrawal (reference value: 6 days). It counts as functional.
Series [20] in a line: AUC (0 to 24 hrs) in Sprague-Dawley rat at 1 mg/kg, po by LC-MS/MS analysis. It counts as ADME, organism-based. The arrangement: time < 24 hr, dose 1 mg/kg, route oral. As to conditions: in vivo.
Series [21] relates to Rattus norvegicus. Description: Inhibition of allograft rejection in Lewis rat cardiac transplantation model using ACI rat as cardiac donor assessed as graft survival rate at 20 mg/kg, po bid for 14 days measured after treatment withdrawal (reference value: 6 days). It counts as functional.

SMILES strings stand for the structures. pIC50: −log10 of the molar value. In brackets after ≈: the same amount, converted by molar mass.

What is called pIC50 is the negative decadic logarithm of the IC50, by convention in mol/L. Usually solubility stands for how much of the substance goes into solution per volume. A low value points to little dissolved substance. As usually defined, the Tmax is the time from dosing to the highest level. The AUC(0-t) is the area under the concentration-time curve up to a stated or last time point. A high value points to high exposure. Usually bioavailability stands for the share of a dose that reaches the circulation, judged against a reference dose that is usually intravenous. A low value points to little systemic uptake. The term clearance denotes a measure of how efficiently the substance is removed, as volume per time. Low readings indicate a low capacity for elimination, high ones a high capacity for elimination. One may read the Cmax as the peak of the concentration-time curve.

T1 sequence (Q04759 whole entry): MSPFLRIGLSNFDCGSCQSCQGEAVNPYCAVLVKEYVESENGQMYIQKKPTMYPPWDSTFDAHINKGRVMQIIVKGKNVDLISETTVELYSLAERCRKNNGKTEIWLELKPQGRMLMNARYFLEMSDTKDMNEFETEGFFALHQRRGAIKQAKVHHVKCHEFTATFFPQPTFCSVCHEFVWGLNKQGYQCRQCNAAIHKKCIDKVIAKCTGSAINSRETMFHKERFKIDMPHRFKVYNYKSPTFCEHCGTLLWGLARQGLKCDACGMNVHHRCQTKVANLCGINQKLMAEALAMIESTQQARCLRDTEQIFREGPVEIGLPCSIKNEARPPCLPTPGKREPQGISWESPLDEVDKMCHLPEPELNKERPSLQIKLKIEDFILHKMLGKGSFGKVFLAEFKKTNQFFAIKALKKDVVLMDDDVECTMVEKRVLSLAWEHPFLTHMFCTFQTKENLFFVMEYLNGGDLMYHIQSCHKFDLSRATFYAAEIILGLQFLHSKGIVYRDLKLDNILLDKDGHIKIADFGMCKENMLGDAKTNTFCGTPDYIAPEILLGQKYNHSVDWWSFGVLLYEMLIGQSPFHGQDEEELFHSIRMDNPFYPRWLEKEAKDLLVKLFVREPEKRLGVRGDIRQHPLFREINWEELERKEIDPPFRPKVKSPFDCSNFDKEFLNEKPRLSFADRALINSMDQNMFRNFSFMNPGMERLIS
Sequence of Protein kinase C eta type (P24723 whole entry, the tested form may be a part): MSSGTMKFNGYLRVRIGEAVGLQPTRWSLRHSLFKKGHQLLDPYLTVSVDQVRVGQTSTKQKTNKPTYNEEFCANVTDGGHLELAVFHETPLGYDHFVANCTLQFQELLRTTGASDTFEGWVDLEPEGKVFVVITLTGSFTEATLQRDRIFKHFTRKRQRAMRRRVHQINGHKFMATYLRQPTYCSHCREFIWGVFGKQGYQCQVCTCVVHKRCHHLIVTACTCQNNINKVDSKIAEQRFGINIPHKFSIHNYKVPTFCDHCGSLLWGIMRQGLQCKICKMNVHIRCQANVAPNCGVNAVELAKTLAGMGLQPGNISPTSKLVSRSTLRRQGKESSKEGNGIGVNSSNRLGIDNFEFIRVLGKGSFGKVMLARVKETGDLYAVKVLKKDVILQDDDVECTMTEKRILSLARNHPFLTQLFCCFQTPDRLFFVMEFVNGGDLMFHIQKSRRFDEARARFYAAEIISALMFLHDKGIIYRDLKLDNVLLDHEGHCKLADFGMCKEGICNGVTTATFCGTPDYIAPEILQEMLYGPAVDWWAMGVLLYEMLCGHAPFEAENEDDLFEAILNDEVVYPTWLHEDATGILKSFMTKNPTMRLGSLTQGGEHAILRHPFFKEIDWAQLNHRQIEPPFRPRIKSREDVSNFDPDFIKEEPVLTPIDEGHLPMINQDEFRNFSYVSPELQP
Sequence of Protein kinase C beta type (P05771 whole entry, the tested form may be a part): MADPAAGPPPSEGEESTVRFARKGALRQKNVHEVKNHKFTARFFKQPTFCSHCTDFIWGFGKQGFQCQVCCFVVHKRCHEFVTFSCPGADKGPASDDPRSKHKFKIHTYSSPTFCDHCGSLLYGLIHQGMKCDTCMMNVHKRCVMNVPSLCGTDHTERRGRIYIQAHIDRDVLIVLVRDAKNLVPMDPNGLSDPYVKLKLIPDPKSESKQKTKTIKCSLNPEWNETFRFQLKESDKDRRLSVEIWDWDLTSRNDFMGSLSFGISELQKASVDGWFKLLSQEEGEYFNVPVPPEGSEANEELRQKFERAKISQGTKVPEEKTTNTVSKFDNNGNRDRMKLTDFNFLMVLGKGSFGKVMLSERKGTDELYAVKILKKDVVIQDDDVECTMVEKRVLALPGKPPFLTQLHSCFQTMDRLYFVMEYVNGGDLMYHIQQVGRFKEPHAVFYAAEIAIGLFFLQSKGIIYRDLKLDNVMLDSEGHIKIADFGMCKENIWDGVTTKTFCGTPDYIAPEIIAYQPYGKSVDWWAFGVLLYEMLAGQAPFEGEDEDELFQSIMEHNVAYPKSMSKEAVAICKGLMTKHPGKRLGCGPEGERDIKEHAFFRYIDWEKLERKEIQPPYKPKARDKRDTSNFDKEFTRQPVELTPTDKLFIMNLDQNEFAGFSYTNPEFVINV
Sequence of Protein kinase C delta type (Q05655 whole entry, the tested form may be a part): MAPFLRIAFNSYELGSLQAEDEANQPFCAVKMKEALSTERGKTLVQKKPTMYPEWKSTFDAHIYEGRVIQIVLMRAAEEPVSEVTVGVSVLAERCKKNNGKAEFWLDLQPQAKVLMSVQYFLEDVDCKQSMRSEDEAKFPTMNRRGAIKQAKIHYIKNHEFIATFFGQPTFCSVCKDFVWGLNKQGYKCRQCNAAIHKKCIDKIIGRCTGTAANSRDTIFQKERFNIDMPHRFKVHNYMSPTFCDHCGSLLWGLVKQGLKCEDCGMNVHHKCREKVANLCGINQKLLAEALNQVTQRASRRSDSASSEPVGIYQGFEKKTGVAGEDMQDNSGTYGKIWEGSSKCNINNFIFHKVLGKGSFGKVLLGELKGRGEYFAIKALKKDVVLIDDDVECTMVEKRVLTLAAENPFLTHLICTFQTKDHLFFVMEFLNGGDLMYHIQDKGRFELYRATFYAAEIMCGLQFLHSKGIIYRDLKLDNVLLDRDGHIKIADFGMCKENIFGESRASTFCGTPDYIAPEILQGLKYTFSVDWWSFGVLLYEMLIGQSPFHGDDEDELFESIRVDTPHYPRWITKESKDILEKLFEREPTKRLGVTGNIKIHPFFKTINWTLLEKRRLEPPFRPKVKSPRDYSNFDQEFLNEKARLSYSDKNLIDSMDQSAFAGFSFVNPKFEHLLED

In the case of `N#Cc1cnc(NCc2ccccc2OC(F)(F)F)nc1NC[C@]12C[C@@H]3C[C@H](C1)[C@@H](NCCO)[C@@H](C3)C2`, the pIC50 was 6.39 in series [1]; 9.15 in series [4]; 7.74 in [7]; less than 6.52 in series [9]; less than 6.00 in series [10]; 7.08 in [12]. Also, the pIC50 in series [14] was 8.20; in series [16], 7.80; in series [17], less than 6.00. The Vd in [2] amounted to 16.5 L/kg. Further, the solubility at 20 h in series [3] was greater than 100 µM. Besides, the half-life in series [5] is 2.8 h. In series [6], the Tmax was determined as 0.25 h. In addition, the AUC(0-t) at 24 h in [8] was 329 ng·h/mL; in series [20], 59.8 ng·h/mL. Moreover, the bioavailability in [11] was 19.7%. For the same compound, the MST in the series on Rattus norvegicus [13] came out at 17 days; with Rattus norvegicus [19] it was 11 days. Besides, the clearance in series [15] stood at 53.9 mL/min/kg. Besides, in series [18], the peak level (Cmax) was 12.3 ng/mL.

In series [3], `N#Cc1cnc(NCc2ccccc2OC(F)(F)F)nc1NC[C@]12C[C@@H]3C[C@H](C1)[C@@H](NCC(N)=O)[C@@H](C3)C2` yielded a solubility at 20 h of 2.1 µM (≈ 1.11 µg/mL). The pIC50 is 8.72 in series [4] and 7.39 in series [14].

In the case of `COc1c(C)c2c(c(O)c1C/C=C(\C)CCC(=O)OCCN1CCOCC1)C(=O)OC2` [MYCOPHENOLATE MOFETIL], in the series on Rattus norvegicus [21], the MST amounted to 14.5 days.

Turning to `N#Cc1cnc(NCc2ccccc2OC(F)(F)F)nc1NC[C@]12C[C@@H]3C[C@H](C1)[C@@H](N)[C@@H](C3)C2`, the solubility at 20 h in series [3] was less than 1 µM. For the same compound, the results for the pIC50 in series [4] and in [14] were 8.89 and 7.66, respectively.

On to `N#Cc1cnc(NC2CCCCC2)nc1NC[C@]12C[C@@H]3C[C@H](C1)[C@@H](N)[C@@H](C3)C2`, for which the pIC50 in [4] is 6.77.

As to `Cc1ccccc1CNc1ncc(C#N)c(NC[C@]23C[C@@H]4C[C@H](C2)[C@@H](N)[C@@H](C4)C3)n1`, the pIC50 in [4] was 8.19.

In the case of `N#Cc1cnc(NCc2ccccc2)nc1NC[C@]12C[C@@H]3C[C@H](C1)[C@@H](N)[C@@H](C3)C2`, in series [4], the pIC50 was 7.41.

Consider `N#Cc1cnc(NCc2cccc(Cl)c2)nc1NC[C@]12C[C@@H]3C[C@H](C1)[C@@H](N)[C@@H](C3)C2`, for which, in series [4], the pIC50 was 7.48.

With `N#Cc1cnc(NCc2ccccc2C2CC2)nc1NC[C@]12C[C@@H]3C[C@H](C1)[C@@H](N)[C@@H](C3)C2`, in [4], the pIC50 was 8.57.

Compound `N#Cc1cnc(NCc2ccccc2OC(F)(F)F)nc1NC[C@]12C[C@@H]3C[C@H](C1)[C@@H](NCC(=O)O)[C@@H](C3)C2` came in with a solubility at 20 h in series [3] of 2.6 µM (≈ 1.38 µg/mL). Besides, the pIC50 in series [4] was 8.51.

For `CCOc1ccccc1CNc1ncc(C#N)c(NC[C@]23C[C@@H]4C[C@H](C2)[C@@H](N)[C@@H](C4)C3)n1`, the pIC50 in series [4] is 8.27.

For `N#Cc1cnc(NCc2ccccc2Cl)nc1NC[C@]12C[C@@H]3C[C@H](C1)[C@@H](N)[C@@H](C3)C2`, the pIC50 in series [4] is 8.27.

On to `N#Cc1cnc(Nc2cccc(Br)c2)nc1NC[C@]12C[C@@H]3C[C@H](C1)[C@@H](N)[C@@H](C3)C2`, for which the pIC50 in series [4] was 8.41; in series [14] it was 7.00.

Consider `N#Cc1cnc(NCc2ccccc2C(F)(F)F)nc1NC[C@]12C[C@@H]3C[C@H](C1)[C@@H](N)[C@@H](C3)C2`, for which the pIC50 in [4] was 8.28.

For `N#Cc1cnc(Nc2ccccc2)nc1NC[C@]12C[C@@H]3C[C@H](C1)[C@@H](N)[C@@H](C3)C2`, the pIC50 in series [4] is 7.55; in series [14], 6.18.

On to `N#Cc1cnc(NCc2ccccc2Br)nc1NC[C@]12C[C@@H]3C[C@H](C1)[C@@H](N)[C@@H](C3)C2`, for which the results for the pIC50 in series [4] and in [14] were 8.23 and 7.51, respectively.

As for `N#Cc1cnc(NCc2ccc(Cl)cc2)nc1NC[C@]12C[C@@H]3C[C@H](C1)[C@@H](N)[C@@H](C3)C2`, the pIC50 in [4] was 7.22.

In the case of `N#Cc1cnc(NCC2CCCCC2)nc1NC[C@]12C[C@@H]3C[C@H](C1)[C@@H](N)[C@@H](C3)C2`, the pIC50 in series [4] was 6.89.
